The source of these data is article PMC11864979, “First-in-class ultralong-target-residence-time p38α inhibitors as a mitosis-targeted therapy for colorectal cancer” (Nature Cancer, 2025).

Common to all, as to experiment: selectivity profiling in a panel of 340 wild-type kinases (Reaction Biology Europe)
What all share (assay type): binding

Experiment [1] addresses T1, 340 wild-type kinases (Homo sapiens, UniProt P49761).
T1 construct: purchased Reaction Biology Europe

In experiment [2] the target is T2, 340 wild-type kinases (Homo sapiens, UniProt Q96RG2).
T2 construct: purchased Reaction Biology Europe

For experiment [3], the target named is T3, 340 wild-type kinases (Homo sapiens, UniProt P51813).
T3 construct: purchased Reaction Biology Europe
T3 sequence (P51813 1-675): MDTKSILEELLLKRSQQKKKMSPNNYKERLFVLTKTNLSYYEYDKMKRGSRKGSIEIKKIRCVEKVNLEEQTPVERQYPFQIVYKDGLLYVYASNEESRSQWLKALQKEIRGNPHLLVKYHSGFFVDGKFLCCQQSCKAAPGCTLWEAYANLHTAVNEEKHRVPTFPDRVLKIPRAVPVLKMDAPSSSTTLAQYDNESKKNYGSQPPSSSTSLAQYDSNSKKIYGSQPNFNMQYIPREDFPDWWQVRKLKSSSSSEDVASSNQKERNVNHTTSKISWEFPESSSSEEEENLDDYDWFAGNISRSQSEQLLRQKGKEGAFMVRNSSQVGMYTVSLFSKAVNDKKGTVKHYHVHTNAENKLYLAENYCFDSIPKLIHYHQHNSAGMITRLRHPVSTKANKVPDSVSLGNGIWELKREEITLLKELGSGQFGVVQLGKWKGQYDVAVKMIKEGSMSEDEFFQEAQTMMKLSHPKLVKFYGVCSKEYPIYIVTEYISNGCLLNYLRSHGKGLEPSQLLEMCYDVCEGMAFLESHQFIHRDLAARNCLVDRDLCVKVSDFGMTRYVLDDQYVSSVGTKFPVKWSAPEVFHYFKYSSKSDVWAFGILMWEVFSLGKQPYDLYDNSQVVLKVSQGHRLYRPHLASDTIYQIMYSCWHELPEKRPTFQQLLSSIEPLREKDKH

Experiment [4] concerns the target T4, 340 wild-type kinases (Homo sapiens, UniProt Q9BZL6).
T4 construct: purchased Reaction Biology Europe
T4 sequence (Q9BZL6 1-878): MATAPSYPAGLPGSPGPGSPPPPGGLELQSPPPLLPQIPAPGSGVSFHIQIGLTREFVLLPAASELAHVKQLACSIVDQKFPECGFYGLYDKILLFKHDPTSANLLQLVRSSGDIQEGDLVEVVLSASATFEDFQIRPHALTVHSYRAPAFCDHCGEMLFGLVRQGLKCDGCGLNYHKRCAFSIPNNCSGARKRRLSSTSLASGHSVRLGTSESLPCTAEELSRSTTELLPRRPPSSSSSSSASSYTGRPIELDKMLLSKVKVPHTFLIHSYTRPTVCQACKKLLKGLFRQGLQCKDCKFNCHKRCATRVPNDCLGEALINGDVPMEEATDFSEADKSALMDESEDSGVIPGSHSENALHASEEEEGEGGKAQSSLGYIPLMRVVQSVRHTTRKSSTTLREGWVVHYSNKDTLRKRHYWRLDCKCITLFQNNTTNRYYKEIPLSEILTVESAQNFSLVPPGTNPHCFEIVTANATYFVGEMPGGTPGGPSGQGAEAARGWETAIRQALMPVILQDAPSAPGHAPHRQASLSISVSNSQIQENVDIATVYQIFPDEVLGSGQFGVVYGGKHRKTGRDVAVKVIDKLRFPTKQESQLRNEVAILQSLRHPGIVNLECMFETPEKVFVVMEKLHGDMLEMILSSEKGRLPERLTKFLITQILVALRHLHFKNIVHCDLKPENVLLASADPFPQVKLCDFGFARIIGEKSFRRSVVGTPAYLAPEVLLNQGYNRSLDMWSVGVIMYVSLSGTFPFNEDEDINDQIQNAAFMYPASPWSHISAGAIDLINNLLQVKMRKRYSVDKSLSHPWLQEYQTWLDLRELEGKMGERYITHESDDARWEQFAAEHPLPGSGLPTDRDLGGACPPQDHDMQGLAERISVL

In experiment [5] the target is T5, 340 wild-type kinases (Homo sapiens, UniProt Q16816).
T5 construct: purchased Reaction Biology Europe

The target of experiment [6] is T6, 340 wild-type kinases (Homo sapiens, UniProt Q13705).
T6 construct: purchased Reaction Biology Europe

Like-named read-outs stand apart in the source and are kept apart here.

T5 sequence (Q16816 whole entry): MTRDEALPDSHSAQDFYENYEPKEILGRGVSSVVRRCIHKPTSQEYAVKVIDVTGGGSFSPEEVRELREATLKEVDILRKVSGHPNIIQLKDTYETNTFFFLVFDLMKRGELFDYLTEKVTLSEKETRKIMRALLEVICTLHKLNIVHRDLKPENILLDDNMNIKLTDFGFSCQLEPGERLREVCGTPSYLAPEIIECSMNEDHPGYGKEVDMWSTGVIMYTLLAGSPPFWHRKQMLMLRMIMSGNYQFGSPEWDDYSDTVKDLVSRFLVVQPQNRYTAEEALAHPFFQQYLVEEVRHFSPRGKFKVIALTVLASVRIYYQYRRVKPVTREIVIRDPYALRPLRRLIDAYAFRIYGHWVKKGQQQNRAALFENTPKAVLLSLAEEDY
T1 sequence (P49761 whole entry): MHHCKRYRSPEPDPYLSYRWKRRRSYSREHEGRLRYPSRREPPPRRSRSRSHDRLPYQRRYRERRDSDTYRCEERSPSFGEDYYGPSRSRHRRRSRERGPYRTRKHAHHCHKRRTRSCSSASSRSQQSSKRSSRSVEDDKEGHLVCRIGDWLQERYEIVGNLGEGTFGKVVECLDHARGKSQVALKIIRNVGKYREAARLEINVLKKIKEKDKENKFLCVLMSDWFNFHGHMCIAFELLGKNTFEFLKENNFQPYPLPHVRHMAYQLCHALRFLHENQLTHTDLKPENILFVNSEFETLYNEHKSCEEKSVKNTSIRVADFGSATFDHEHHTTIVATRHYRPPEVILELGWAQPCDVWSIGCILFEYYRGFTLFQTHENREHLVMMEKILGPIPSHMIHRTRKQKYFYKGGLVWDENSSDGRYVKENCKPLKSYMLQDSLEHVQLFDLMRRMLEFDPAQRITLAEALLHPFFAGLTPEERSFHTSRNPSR
T6 sequence (Q13705 19-512): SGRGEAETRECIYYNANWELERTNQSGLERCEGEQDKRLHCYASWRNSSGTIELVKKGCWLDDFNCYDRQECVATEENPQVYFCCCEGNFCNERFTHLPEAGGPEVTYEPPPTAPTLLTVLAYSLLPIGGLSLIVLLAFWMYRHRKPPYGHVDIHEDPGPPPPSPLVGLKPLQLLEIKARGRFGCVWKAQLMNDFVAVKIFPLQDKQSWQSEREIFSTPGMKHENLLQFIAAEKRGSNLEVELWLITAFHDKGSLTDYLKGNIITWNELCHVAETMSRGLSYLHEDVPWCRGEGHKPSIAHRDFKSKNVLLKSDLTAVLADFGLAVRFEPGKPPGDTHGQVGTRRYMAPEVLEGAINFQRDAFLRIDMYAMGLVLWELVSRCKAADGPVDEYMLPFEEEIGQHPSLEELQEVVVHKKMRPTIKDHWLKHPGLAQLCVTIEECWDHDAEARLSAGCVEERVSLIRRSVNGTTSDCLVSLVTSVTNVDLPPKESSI
T2 sequence (Q96RG2 whole entry): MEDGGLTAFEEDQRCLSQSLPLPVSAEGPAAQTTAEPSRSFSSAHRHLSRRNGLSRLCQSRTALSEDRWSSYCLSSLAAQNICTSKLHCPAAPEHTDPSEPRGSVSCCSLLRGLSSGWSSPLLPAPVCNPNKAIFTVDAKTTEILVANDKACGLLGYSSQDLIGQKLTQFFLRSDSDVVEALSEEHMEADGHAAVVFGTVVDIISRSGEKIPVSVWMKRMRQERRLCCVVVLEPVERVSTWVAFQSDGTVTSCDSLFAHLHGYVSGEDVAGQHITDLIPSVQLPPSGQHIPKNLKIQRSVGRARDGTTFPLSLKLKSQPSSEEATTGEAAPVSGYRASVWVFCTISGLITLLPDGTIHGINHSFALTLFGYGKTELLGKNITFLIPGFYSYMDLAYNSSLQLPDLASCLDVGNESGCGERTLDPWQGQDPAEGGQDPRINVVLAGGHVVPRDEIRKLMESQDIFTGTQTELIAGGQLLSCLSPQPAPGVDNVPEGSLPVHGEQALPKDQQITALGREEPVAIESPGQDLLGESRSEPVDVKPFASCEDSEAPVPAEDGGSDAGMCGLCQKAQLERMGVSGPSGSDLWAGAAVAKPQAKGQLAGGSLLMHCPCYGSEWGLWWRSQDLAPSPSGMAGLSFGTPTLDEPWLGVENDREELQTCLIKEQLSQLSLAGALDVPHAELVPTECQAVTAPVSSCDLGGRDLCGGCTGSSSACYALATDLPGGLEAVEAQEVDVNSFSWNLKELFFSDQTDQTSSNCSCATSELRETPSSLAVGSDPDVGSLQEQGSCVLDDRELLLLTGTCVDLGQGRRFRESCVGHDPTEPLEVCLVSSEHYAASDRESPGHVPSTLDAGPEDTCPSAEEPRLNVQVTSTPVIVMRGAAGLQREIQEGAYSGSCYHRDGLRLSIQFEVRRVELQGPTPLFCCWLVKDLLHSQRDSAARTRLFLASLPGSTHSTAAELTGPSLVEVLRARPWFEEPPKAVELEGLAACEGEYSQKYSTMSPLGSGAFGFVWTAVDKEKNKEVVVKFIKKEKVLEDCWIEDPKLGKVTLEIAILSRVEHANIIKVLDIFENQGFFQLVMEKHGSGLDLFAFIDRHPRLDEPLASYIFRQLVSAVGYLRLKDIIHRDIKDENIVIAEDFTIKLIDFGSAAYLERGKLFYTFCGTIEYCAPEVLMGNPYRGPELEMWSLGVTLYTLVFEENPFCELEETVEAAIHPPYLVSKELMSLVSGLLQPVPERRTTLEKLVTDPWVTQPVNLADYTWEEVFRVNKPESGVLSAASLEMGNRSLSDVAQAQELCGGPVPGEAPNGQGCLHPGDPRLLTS

For `CNC(=O)c1ccc2c(c1)C(=O)c1ccc(Nc3ccc(F)c(NC(=O)C4CC4)c3)cc1CC2` [Compound 2015], the remaining activity at 0.2 µM at 340 wild-type kinases [1] (0.2 µM 2015, read-out: CLK3 residual activity) amounted to 138%; on 340 wild-type kinases [1] (CLK3, 0.2 µM, read-out: residual activity), 138%; on 340 wild-type kinases [2] (0.2 µM 2015, read-out: PASK residual activity), 99.2%; at 340 wild-type kinases [2] (PASK, 0.2 µM, read-out: residual activity), 99.2%; on 340 wild-type kinases [3] (0.2 µM 2015, read-out: BMX residual activity), 96.3%; at 340 wild-type kinases [3] (BMX, 0.2 µM, read-out: residual activity) it was 96.3%. The remaining activity at 0.2 µM came to 66.4% at 340 wild-type kinases [4] (0.2 µM 2015, read-out: PRKD2 residual activity); 66.4% at 340 wild-type kinases [4] (PRKD2, 0.2 µM, read-out: residual activity); 90.9% at 340 wild-type kinases [5] (0.2 µM 2015, read-out: PHKG1 residual activity); 90.9% on 340 wild-type kinases [5] (PHKG1, 0.2 µM, read-out: residual activity); 81.6% on 340 wild-type kinases [6] (0.2 µM 2015, read-out: ACVR2B residual activity); 81.7% at 340 wild-type kinases [6] (ACVR2B, 0.2 µM, read-out: residual activity). Further, the remaining activity at 1 µM is 133% on 340 wild-type kinases [1] (1 µM 2015, read-out: CLK3 residual activity); 133% on 340 wild-type kinases [1] (CLK3, 1 µM, read-out: residual activity); 95.1% on 340 wild-type kinases [2] (1 µM 2015, read-out: PASK residual activity); 95.1% on 340 wild-type kinases [2] (PASK, 1 µM, read-out: residual activity); 86.5% on 340 wild-type kinases [3] (1 µM 2015, read-out: BMX residual activity); 86.5% at 340 wild-type kinases [3] (BMX, 1 µM, read-out: residual activity). Also, the remaining activity at 1 µM at 340 wild-type kinases [4] (1 µM 2015, read-out: PRKD2 residual activity) amounted to 91.3%; at 340 wild-type kinases [4] (PRKD2, 1 µM, read-out: residual activity), 91.3%; at 340 wild-type kinases [5] (1 µM 2015, read-out: PHKG1 residual activity), 102%; at 340 wild-type kinases [5] (PHKG1, 1 µM, read-out: residual activity) it was 102%; on 340 wild-type kinases [6] (1 µM 2015, read-out: ACVR2B residual activity) it was 82.3%; at 340 wild-type kinases [6] (ACVR2B, 1 µM, read-out: residual activity) it was 82.3%.
